Test results reported in ChEMBL document CHEMBL5465560, “Selectivity Literature for EUbOPEN Chemogenomic Library” (2024).

Assays:
[1] = target: T1, Serine/threonine-protein kinase Nek9 (Homo sapiens) (UniProt Q8TD19); settings: at 10 µM
T1 sequence (whole entry): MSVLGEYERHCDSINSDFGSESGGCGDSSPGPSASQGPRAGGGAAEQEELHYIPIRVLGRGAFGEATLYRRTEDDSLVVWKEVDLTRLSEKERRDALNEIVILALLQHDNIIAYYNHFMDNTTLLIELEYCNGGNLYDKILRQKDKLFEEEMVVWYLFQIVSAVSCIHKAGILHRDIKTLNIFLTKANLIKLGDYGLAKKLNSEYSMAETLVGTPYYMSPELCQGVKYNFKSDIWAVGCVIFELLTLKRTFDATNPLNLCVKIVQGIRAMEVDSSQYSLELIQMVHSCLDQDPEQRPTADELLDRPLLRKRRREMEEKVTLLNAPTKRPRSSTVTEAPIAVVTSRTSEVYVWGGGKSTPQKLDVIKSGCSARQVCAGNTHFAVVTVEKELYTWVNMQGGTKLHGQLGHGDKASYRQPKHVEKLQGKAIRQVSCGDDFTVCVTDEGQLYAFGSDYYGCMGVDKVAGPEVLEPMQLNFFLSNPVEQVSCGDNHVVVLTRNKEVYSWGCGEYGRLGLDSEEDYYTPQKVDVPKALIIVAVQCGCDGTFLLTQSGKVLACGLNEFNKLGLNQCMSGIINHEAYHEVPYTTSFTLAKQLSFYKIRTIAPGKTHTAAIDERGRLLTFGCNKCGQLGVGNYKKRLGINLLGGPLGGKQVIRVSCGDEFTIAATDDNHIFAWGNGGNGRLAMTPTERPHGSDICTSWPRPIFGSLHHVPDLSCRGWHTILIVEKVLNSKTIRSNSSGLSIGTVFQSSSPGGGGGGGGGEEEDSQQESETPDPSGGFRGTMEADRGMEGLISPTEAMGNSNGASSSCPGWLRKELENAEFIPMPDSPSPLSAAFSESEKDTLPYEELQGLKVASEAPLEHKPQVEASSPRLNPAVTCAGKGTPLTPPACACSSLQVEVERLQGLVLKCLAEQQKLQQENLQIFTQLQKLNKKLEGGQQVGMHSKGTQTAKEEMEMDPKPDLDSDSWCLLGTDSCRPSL

[2] = target: Serine/threonine-protein kinase tousled-like 2 (Homo sapiens) (UniProt Q86UE8); settings: at 10 µM
Chain of Serine/threonine-protein kinase tousled-like 2 (Homo sapiens) (Q86UE8 whole entry, looked up): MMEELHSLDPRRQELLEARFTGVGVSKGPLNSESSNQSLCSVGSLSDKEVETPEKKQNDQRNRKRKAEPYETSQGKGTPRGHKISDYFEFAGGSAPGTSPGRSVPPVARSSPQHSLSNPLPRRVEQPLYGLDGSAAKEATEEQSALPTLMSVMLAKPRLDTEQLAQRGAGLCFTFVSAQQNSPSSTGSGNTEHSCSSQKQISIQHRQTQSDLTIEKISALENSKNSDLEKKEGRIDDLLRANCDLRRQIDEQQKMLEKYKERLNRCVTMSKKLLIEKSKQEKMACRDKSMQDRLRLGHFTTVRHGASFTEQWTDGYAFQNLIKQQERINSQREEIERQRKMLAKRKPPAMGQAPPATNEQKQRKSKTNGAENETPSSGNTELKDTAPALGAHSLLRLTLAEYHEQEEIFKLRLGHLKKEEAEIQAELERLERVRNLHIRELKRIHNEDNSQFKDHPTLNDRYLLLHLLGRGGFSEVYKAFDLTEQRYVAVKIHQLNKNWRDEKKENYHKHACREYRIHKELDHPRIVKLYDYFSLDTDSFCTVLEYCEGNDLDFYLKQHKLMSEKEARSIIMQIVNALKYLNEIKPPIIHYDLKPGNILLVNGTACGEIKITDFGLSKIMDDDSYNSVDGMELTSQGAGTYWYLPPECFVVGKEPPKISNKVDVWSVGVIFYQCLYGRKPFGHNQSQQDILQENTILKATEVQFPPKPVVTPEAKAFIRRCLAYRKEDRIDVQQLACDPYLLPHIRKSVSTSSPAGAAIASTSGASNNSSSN

[3] = target: Serine/threonine-protein kinase PLK3 (Homo sapiens, UniProt Q9H4B4); test: Selectivity interaction (KinomeScan (DiscoverX)) EUB0000045b PLK3
Chain of Serine/threonine-protein kinase PLK3 (Q9H4B4 whole entry, looked up): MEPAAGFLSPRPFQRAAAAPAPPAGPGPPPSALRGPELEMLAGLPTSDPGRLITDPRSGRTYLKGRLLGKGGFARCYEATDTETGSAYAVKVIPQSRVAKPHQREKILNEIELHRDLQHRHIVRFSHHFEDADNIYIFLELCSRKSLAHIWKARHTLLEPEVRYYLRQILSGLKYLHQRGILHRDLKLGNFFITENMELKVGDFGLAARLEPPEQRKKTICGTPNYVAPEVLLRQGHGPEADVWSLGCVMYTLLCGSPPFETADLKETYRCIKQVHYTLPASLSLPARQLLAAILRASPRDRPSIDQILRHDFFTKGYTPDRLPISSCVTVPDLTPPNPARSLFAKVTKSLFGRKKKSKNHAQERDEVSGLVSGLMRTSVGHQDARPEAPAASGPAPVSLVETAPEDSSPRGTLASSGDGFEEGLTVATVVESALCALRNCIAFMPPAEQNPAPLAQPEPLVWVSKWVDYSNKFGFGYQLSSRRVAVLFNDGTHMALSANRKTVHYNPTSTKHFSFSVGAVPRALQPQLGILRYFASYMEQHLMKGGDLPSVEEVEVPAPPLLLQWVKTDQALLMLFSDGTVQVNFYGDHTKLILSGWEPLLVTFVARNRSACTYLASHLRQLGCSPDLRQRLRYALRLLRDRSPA

[4] = target: T2, Serine/threonine-protein kinase TAO3 (Homo sapiens) (UniProt Q9H2K8); settings: at 10 µM
T2 sequence (whole entry): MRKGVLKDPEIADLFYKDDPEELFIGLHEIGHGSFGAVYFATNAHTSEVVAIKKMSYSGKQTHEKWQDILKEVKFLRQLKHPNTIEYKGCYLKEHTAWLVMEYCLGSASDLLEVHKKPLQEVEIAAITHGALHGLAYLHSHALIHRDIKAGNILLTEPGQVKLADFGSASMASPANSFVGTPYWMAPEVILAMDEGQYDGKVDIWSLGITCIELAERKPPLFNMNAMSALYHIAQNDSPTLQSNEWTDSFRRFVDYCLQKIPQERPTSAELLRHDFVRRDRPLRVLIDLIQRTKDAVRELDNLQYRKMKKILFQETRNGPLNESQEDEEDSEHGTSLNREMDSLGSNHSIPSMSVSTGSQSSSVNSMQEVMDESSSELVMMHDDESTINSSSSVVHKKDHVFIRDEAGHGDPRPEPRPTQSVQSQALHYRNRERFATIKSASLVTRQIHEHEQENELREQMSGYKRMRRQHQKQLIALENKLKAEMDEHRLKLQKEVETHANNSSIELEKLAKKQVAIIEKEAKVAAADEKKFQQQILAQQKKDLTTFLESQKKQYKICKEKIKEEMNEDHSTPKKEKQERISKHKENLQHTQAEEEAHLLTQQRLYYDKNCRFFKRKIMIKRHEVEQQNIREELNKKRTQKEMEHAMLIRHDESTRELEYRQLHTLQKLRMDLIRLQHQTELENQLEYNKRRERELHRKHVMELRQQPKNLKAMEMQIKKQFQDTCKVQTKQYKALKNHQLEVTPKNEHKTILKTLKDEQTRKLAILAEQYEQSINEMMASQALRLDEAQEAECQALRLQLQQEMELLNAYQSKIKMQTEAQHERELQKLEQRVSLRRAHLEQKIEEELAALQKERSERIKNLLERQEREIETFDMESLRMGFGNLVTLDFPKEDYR

[5] = target: Serine/threonine-protein kinase PAK 1 (Homo sapiens) (UniProt Q13153); test: Selectivity interaction (KinomeScan (DiscoverX)) EUB0000229b PAK1; settings: at 10 µM
Chain of Serine/threonine-protein kinase PAK 1 (Homo sapiens) (Q13153 whole entry): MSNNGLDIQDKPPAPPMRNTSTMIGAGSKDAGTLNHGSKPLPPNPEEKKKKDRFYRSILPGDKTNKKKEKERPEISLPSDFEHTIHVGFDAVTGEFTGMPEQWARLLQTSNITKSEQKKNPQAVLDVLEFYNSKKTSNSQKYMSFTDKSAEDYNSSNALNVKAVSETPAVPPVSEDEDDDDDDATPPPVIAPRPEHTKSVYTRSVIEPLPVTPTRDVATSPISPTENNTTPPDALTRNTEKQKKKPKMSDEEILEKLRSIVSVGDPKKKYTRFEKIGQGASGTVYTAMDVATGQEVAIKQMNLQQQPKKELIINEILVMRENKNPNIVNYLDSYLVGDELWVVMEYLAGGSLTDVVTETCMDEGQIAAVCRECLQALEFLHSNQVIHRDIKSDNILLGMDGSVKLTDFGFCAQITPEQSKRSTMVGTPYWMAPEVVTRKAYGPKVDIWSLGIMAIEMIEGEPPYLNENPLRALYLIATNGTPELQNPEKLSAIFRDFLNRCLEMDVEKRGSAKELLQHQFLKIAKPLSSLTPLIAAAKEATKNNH

`CCN(CC)CCCCNc1ncc2cc(-c3cc(OC)cc(OC)c3)c(NC(=O)NC(C)(C)C)nc2n1` showed a % of control [1] of 100% and a % of control [2] of 100%.
Compound `C=CC(=O)Nc1cc(-n2c(=O)ccc3cnc4ccc(-c5ccc(NS(C)(=O)=O)cc5)cc4c32)ccc1C` has a % of control ([3]; at 1 µM) of 100% and a % of control ([3]; at 10 µM) of 100%.
For `Cc1cc([C@@H](C)Nc2ccccc2C(=O)O)c2nc(N3CCOCC3)cc(=O)n2c1` [AZD-6482], the % of control [4] was 100%.
`COc1cc(N(C)c2ccnc3ccc(C(F)(F)F)cc23)cc(OC)c1OC` gave a % binding [5] of 89%.
